Source: patent US20240130988A1, “Use of stilbene compounds in the preparation of anti-tumor drugs” (Guangzhou AnHao Pharmaceutical Technology CO., LTD., priority 2022, published 2024)

Columns and labels:
Format in all cases: in vivo
[1] = test system: human gastric cancer SGC7901; assay: Compound 6 combined with paclitaxel, human gastric cancer SGC7901 xenograft in nude mice; conditions: paclitaxel 10 mg/kg iv, compound 6 200 mg/kg ip, combination 10 + 200
Excerpt: Experimental method: The model of human gastric cancer SGC7901 transplant tumor in nude mice was established by subcutaneously inoculating human gastric cancer SGC7901 cell lines into the armpits of nude mice. Cells were inoculated in an amount of 1×10^6, and after formation of the transplanted tumors by inoculation, the cells were passed 3 generations in nude mice before use. The vigorous growth of tumor tissue was cut into approximate 1.5 mm^3, and homogenized under sterile conditions, to prepare 1×10^7/mL of cell suspension. 0.1 mL of cell suspension was subcutaneously inoculated into the right armpit of nude mice. For transplanted tumors in nude mice, the diameter was measured with vernier caliper. After the tumor grew to 100 mm^3, the animals were randomly divided into groups, with 6 mice in each group. […] The measurement frequency of tumor diameter was once every three days. The dosage by volume was 0.1 mL/20 g. The mice in the negative control group were given an equal amount of physiological saline by intravenous injection. The effect of combined medicaments was evaluated based on the Q value calculated by Jin's formula: […]
Ea+b represents the tumor inhibitory rate of the combined medicaments, while Ea and Eb represent the tumor inhibitory rates of medicament A and medicament B, respectively.

[2] = test system: human liver cancer Bel7404; assay: Compound 3 combined with lenvatinib, human liver cancer Bel7404 xenograft in nude mice; conditions: po: lenvatinib 10 mg/kg, compound 3 400 mg/kg, combination 10 + 400
Excerpt: Experimental method: The model of human liver cancer Bel7404 transplant tumor in nude mice was established by subcutaneously inoculating human liver cancer Bel7404 cell lines into the armpits of nude mice. Cells were inoculated in an amount of 1×10^6, and after formation of the transplanted tumors by inoculation, the cells were passed 3 generations in nude mice before use. The vigorous growth of tumor tissue was cut into approximate 1.5 mm^3, and homogenized under sterile conditions, to prepare 1×10^7/mL of cell suspension. 0.1 mL of cell suspension was subcutaneously inoculated into the right armpit of nude mice. For transplanted tumors in nude mice, the diameter of the transplanted tumor was measured with vernier caliper. After the tumor grew to 100 mm^3, the animals were randomly divided into groups, with 6 animals in each group. Using the method of measuring tumor diameter, the anti-tumor effect of test compound was dynamically observed. Compound 3 was orally administered at 400 mg/kg, once a day, for three weeks; lenvartinib was also orally administered at 10 mg/kg, once a day, for two weeks. The measurement frequency of tumor diameter was once every three days. The animals in the negative control group were orally given an equal amount of physiological saline. The effect of combined medicaments was evaluated based on the Q value calculated by the Jin's formula: […]
Ea+b represents the tumor inhibitory rate of the combined medicaments, while Ea and Eb represent the tumor inhibitory rates of medicament A and medicament B, respectively. For example, the Q value of 0.85-1.15 means additive action (+), and the Q value of >1.15 means synergistic action (++).

[3] = test system: human lung cancer A549; assay: Compound 8 combined with carboplatin, human lung cancer A549 xenograft in nude mice; conditions: ip: carboplatin 10 mg/kg, compound 8 200 mg/kg, combination 10 + 200
Excerpt: Experimental method: The model of human lung cancer A549 transplant tumor in nude mice was established by subcutaneously inoculating human lung cancer A549 cell lines into the armpits of nude mice. Cells were inoculated in an amount of 1×10^6, and after formation of the transplanted tumors by inoculation, the cells were passed 3 generations in nude mice before use. The vigorous growth of tumor tissue was cut into approximate 1.5 mm^3, and homogenized under sterile conditions, to prepare 1×10^7/mL of cell suspension. 0.1 mL of cell suspension was subcutaneously inoculated into the right armpit of nude mice. For transplanted tumors in nude mice, the diameter was measured with vernier caliper. After the tumor grew to 100 mm^3, the animals were randomly divided into groups, with 6 mice in each group. Using the method of measuring tumor diameter, the anti-tumor effect of test compound was dynamically Observed. Compound 8 was administered at 200 mg/kg by intraperitoneal injection, once every other day, for three weeks; carboplatin was administered at 10 mg/kg by intraperitoneal injection, once every other day, for three weeks. The measurement frequency of tumor diameter was once every three days. The dosage by volume was 0.1 mL/20 g. The mice in the negative control group were given an equal amount of physiological saline by intravenous injection. The effect of combined medicaments was evaluated based on the Q value calculated by Jin's formula: […]
Ea+b represents the tumor inhibitory rate of the combined medicaments, while Ea and Eb represent the tumor inhibitory rates of medicament A and medicament B, respectively. For example, the Q value of 0.85-1.15 means additive action (+), while the Q value of >1.15 means synergistic action (++).

CC(=O)O[C@H]1C(=O)[C@@]2(C)[C@H]([C@H](OC(=O)c3ccccc3)[C@]3(O)C[C@H](OC(=O)[C@H](O)[C@@H](NC(=O)c4ccccc4)c4ccccc4)C(C)=C1C3(C)C)[C@]1(OC(C)=O)CO[C@@H]1C[C@@H]2O [Paclitaxel, reference compound]
RTV (d 21) [1]: 7.37 ± 1.76 | Terminal weight [1]: 21.7 ± 0.6 g | Tumor inhibitory rate % [1]: 45.49%

COc1cc2nccc(Oc3ccc(NC(=O)NC4CC4)c(Cl)c3)c2cc1C(N)=O [Lenvatinib, reference compound]
RTV (d 21) [2]: 3.89 ± 1.46 | Terminal weight [2]: 21.8 ± 0.7 g | Tumor inhibitory rate % [2]: 65.36%

N.N.O=C([O-])C1(C(=O)[O-])CCC1.[Pt+2] [Carboplatin]
RTV (d 21) [3]: 6.63 ± 1.42 | Terminal weight [3]: 21.5 ± 0.9 g | Tumor inhibitory rate % [3]: 48.48%
